Values quoted from earlier work as cited in patent US20040248846A1, “Intranasal administration of triptans” (Nastech Pharmaceutical Company Inc., priority 2003, published 2004).
Like-named read-outs stand apart in the source and are kept apart here.

How the values were obtained:
[1] = single 6 mg subcutaneous dose, 18 healthy males

CNS(=O)(=O)Cc1ccc2[nH]cc(CCN(C)C)c2c1 [sumatriptan]
mean Cmax (5 mg intranasal dose, 20 females): 5 ng/mL
mean Cmax (20 mg intranasal dose, 20 females): 16 ng/mL
mean Cmax (oral dosing with 25 mg): approximately 18 ng/ml
tmax (oral dosing with 25 mg): approximately 2 hours
mean Cmax [1]: 74 ± 15 ng/mL
median tmax [1]: 12 min
efficacy (effective) (patients with migraine; 6 mg subcutaneous dose): ~85%
Onset of pain relief (patients with migraine; after a nasal dose): 30 min
Onset of pain relief (patients with migraine; after a subcutaneous dose): 10 to 34 min
